Experimental findings from US11208423B2, “Pyridinamine-pyridone and pyrimidinamine- pyridone compounds” (Sprint Bioscience AB, priority 2017, dated 2021) are described below.

One assay concerns the target Vps34 enzyme (Homo sapiens (Human), UniProt Q8NEB9). The experiment in a line: Vps34 Biochemical Assay (Adapta kinase assay). The following applies: 20 μM ATP / 200 μM PI:PS substrate mix, 1 h at room temperature, TR-FRET, read-out: Median IC50 nM Adapta. As to the method:
Dilution series of compounds of the invention were prepared in DMSO at 100 times the final assay concentration (n1=n0/3 in 10 points). The compounds were further diluted to 4 times the assay concentration in assay buffer (Life technologies buffer Q, PV5125, diluted 5 times supplemented with 2 mM DTT and 2 mM MnCl2). 2.5 μl of the diluted compounds were added to a 384 well assay plate followed by 2.5 μl of 16.5 nM Vps34 enzyme (Life technologies, PV5126). Enzyme and compounds were pre-incubated at rt for 15 min. Then 5 μl of substrate mix containing 20 μM ATP (Life technologies, PV3227) and 200 μM PI:PS substrate (Life technologies, PV5122) in assay buffer was added to the wells containing compound and enzyme. Mixing was performed by pipetting several times. The reaction was incubated at room temperature for 1 h. Then 5 μl stop-detection mix, prepared as described in the Adapta kinase assay kit instructions (Life technologies, PV5099) containing Adapta Eu-anti-ADP antibody (2.3 nM), Alexa Fluor 647 ADP tracer (9 nM) and EDTA (30 mM) in TR-FRET buffer, was added to quench the reaction. Mixing was performed by pipetting several times. The assay plate was then incubated at room temperature for 30 min and read with Artemis micro plate reader. Percent inhibition of the compounds as compared to DMSO treated control samples was calculated. By the use of Dotmatics software compound concentration versus percent inhibition was fitted to generate IC50 values.
(In general: TR-FRET usually uses a lanthanide donor and a delayed reading to cut background.)

Assay [1] relates to autophagy in HOS cells (GFP-LC3). The experiment in a line: High Content Screening Autophagy Assay (GFP-LC3 foci). The following applies: Homo sapiens; HOS cells expressing GFP-LC3; autophagy activated with KU-0063794 500 nM plus Bafilomycin A1 5 nM; 6 hours; foci area per cell; read-out: Median IC50 (μM) Cellular assay. The assay is classed as cell-based. How it is done: High Content Screening Autophagy Assay
Human osteosarcoma cells (HOS) stably expressing a Green Fluorescent Protein (GFP) tagged LC3 (GFP-LC3) were used to determine the inhibitory effect on autophagy of proprietary compounds. For that purpose, autophagy was activated by using the mTOR inhibitor KU-0063794 at 500 nM in the presence of Bafilomycin A1 (Sigma-Aldrich) at 5 nM. Shortly, cells were plated overnight in clear bottom 96-well plates in DMEM—High Modified media (Hi-Clone Cat #SH30285.01). At the start of the experiment, the media was removed and replaced with fresh media containing the mTOR inhibitor, Bafilomycin A1 and the vehicle or a test compound as indicated. After 6 hours the media was removed, cells were washed twice with ice-cold phosphate buffered saline (PBS) and fixed with 4% paraformaldehyde for 20 minutes at room temperature. Then the cells were washed twice with ice-cold PBS before adding Hoechst 33342 at 1 μg/ml in PBS for nuclear staining. After incubation overnight at 4° C., cells were washed once with PBS to remove the excess of dye and 100 μl of PBS was added to each well. Images were acquired at 20× magnification, 6 images per well, using the ImageXpress automated microscope (Molecular Devices Inc.) and analyzed with MetaXpress software to identify LC3-GFP foci. Foci area per cell values were used to generate dose response curves and IC50 values were calculated using the non-linear fitting analysis in GraphPad Prism software.
The results of the assay are shown in Table 2 (Median IC50 μM HOS-LC3).

Sequence of Vps34 enzyme (Q8NEB9 whole entry): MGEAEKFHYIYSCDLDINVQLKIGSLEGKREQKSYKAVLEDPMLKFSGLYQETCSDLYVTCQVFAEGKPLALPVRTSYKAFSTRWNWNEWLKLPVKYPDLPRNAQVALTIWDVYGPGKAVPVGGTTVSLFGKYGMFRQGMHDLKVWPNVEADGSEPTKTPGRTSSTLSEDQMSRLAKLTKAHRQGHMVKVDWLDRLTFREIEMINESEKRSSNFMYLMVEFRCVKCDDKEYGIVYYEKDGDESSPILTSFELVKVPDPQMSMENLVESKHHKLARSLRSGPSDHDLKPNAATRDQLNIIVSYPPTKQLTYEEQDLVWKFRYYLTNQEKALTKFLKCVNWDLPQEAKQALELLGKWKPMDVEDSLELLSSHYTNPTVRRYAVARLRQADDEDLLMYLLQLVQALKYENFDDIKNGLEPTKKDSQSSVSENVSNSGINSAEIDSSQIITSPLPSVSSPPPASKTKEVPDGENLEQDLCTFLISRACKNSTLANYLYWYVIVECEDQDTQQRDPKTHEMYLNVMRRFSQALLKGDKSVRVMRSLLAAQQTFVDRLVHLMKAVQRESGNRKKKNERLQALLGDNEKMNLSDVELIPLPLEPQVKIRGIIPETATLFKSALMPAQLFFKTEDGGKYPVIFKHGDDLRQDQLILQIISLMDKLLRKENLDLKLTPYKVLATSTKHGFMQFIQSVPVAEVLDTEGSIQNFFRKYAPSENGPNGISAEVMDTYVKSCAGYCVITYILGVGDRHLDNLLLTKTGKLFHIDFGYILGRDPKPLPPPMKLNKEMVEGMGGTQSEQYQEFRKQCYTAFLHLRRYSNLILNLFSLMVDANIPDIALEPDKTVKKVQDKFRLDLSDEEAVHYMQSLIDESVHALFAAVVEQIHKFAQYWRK

Usually IC50 stands for the concentration that inhibits the measured activity by half. In the case of `O=c1cc(-c2ccnc(Nc3ccccc3)n2)cc(-c2ccccc2Cl)[nH]1` [Example 4, 4-(2-anilinopyrimidin-4-yl)-6-(2-chlorophenyl)-1H-pyridin-2-one], on Vps34 enzyme, the concentration for half-maximal inhibition (IC50) was under 5 nM.
Consider `O=c1cc(-c2ccnc(Nc3ccccc3)n2)cc(-c2cccnc2)[nH]1` [Example 6, 4-(2-Anilinopyrimidin-4-yl)-6-(3-pyridyl)-1H-pyridin-2-one], for which the results for the half-maximal inhibitory concentration (IC50) (at Vps34 enzyme; in assay [1]) were under 5 nM and 0.054 µM, respectively.
For `O=c1cc(-c2ccnc(Nc3ccccc3)n2)cc(-c2ccncc2)[nH]1` [Example 8, 4-(2-Anilinopyrimidin-4-yl)-6-(4-pyridyl)-1H-pyridin-2-one] the same measures were 6 nM and 0.066 µM.
For `O=c1cc(-c2ccnc(Nc3ccccc3)n2)cc(N2CCOCC2)[nH]1` [Example 10, 4-(2-anilinopyrimidin-4-yl)-6-morpholino-1H-pyridin-2-one] the same measures were under 5 nM and 0.019 µM.
With `Cc1nccc(Nc2cc(-c3cc(N4CCCCC4C(F)(F)F)[nH]c(=O)c3)ccn2)n1` (stereo not drawn) [Example 18, 4-[2-[(2-Methylpyrimidin-4-yl)amino]-4-pyridyl]-6-[2-(trifluoromethyl)-1-piperidyl]-1H-pyridin-2-one], the concentration for half-maximal inhibition (IC50) at Vps34 enzyme is under 5 nM.
Still for that read-out and setting: as for `O=c1cc(-c2ccnc(Nc3ccccc3)n2)cc(N2CCCCC2C(F)(F)F)[nH]1` (stereo not drawn) [Example 21, 4-(2-Anilinopyrimidin-4-yl)-6-[2-(trifluoromethyl)-1-piperidyl]-1H-pyridin-2-one], the figure is under 5 nM.
With `Cc1nccc(Nc2cc(-c3cc(N4CCOCC4C(F)(F)F)[nH]c(=O)c3)ccn2)n1` (stereo not drawn) [Example 26, 4-[2-[(2-Methylpyrimidin-4-yl)amino]-4-pyridyl]-6-[3-(trifluoromethyl)morpholin-4-yl]-1H-pyridin-2-one], the values for the concentration for half-maximal inhibition (IC50) (at Vps34 enzyme; in assay [1]) were under 5 nM and 0.01 µM, respectively.
Take `O=c1cc(-c2ccnc(Nc3ccccc3)n2)cc(N2CCOCC2C(F)(F)F)[nH]1` (stereo not drawn) [Example 27, 4-(2-Anilinopyrimidin-4-yl)-6-[3-(trifluoromethyl)morpholin-4-yl]-1H-pyridin-2-one]: the 50% inhibitory concentration (IC50) on Vps34 enzyme is under 5 nM; in assay [1] it was 0.02 µM.
For `Cc1nccc(Nc2cc(-c3cc(N4CCN(S(=O)(=O)Cc5ccc(F)cc5)CC4C(F)(F)F)[nH]c(=O)c3)ccn2)n1` (stereo not drawn) [Example 33, 6-[4-[(4-Fluorophenyl)methylsulfonyl]-2-(trifluoromethyl)piperazin-1-yl]-4-[2-[(2-methylpyrimidin-4-yl)amino]-4-pyridyl]-1H-pyridin-2-one] the same measures were under 5 nM and 0.003 µM.
Regarding `CCS(=O)(=O)N1CCN(c2cc(-c3ccnc(Nc4ccnc(C)n4)c3)cc(=O)[nH]2)C(C(F)(F)F)C1` (stereo not drawn) [Example 39, 6-[4-Ethylsulfonyl-2-(trifluoromethyl)piperazin-1-yl]-4-[2-[(2-methylpyrimidin-4-yl)amino]-4-pyridyl]-1H-pyridin-2-one], the values for the half-inhibitory concentration (IC50) (at Vps34 enzyme; in assay [1]) were under 5 nM and 0.002 µM, respectively.
For `O=c1cc(-c2ccnc(Nc3ncco3)c2)cc(N2CCOCC2C(F)(F)F)[nH]1` (stereo not drawn) [Example 40, 4-[2-(Oxazol-2-ylamino)-4-pyridyl]-6-[3-(trifluoromethyl)morpholin-4-yl]-1H-pyridin-2-one] the same measures were under 5 nM and 0.029 µM.
Take `Cc1nc(Nc2cc(-c3cc(N4CCOCC4C(F)(F)F)[nH]c(=O)c3)ccn2)cs1` (stereo not drawn) [Example 42, 4-[2-[(2-Methylthiazol-4-yl)amino]-4-pyridyl]-6-[3-(trifluoromethyl)morpholin-4-yl]-1H-pyridin-2-one]: the IC50 on Vps34 enzyme was 13 nM.
For `Cc1nccc(Nc2cc(-c3cc(-c4ccccc4C(F)(F)F)[nH]c(=O)c3)ccn2)n1` [Example 47, 4-[2-[(2-Methylpyrimidin-4-yl)amino]-4-pyridyl]-6-[2-(trifluoromethyl)phenyl]-1H-pyridin-2-one], the IC50 on Vps34 enzyme was under 5 nM; in assay [1] it was 0.003 µM.
Consider `Cn1nccc1Nc1cc(-c2cc(-c3ccccc3C(F)(F)F)[nH]c(=O)c2)ccn1` [Example 50, 4-[2-[(2-Methylpyrazol-3-yl)amino]-4-pyridyl]-6-[2-(trifluoromethyl)phenyl]-1H-pyridin-2-one], for which the IC50 was found to be 55 nM at Vps34 enzyme and 0.254 µM in assay [1].
Take `Cc1nc(Nc2cc(-c3cc(-c4ccccc4C(F)(F)F)[nH]c(=O)c3)ccn2)cs1` [Example 52, 4-[2-[(2-Methylthiazol-4-yl)amino]-4-pyridyl]-6-[2-(trifluoromethyl)phenyl]-1H-pyridin-2-one]: on Vps34 enzyme, the concentration for half-maximal inhibition (IC50) is 52 nM.
Turning to `Cc1nccc(Nc2cc(-c3cc(-c4cnccc4C)[nH]c(=O)c3)ccn2)n1` [Example 55, 6-(4-Methyl-3-pyridyl)-4-[2-[(2-methylpyrimidin-4-yl)amino]-4-pyridyl]-1H-pyridin-2-one], the IC50 is under 5 nM at Vps34 enzyme and 0.099 µM in assay [1].
For `Cc1nccc(Nc2cc(-c3cc(-c4cccnc4C(F)(F)F)[nH]c(=O)c3)ccn2)n1` [Example 57, 4-[2-[(2-Methylpyrimidin-4-yl)amino]-4-pyridyl]-6-[2-(trifluoromethyl)-3-pyridyl]-1H-pyridin-2-one] the same measures were under 5 nM and 0.006 µM.
`CCn1cc(-c2cc(-c3ccnc(Nc4ccnc(C)n4)c3)cc(=O)[nH]2)c(C(F)(F)F)n1` [Example 59, 6-[1-Ethyl-3-(trifluoromethyl)pyrazol-4-yl]-4-[2-[(2-methylpyrimidin-4-yl)amino]-4-pyridyl]-1H-pyridin-2-one]: the half-maximal inhibitory concentration (IC50) at Vps34 enzyme was under 5 nM; in assay [1] it was 0.005 µM.
For `Cn1cnc(Nc2cc(-c3cc(-c4ccccc4C(F)(F)F)[nH]c(=O)c3)ccn2)c1` [Example 62, 4-[2-[(1-Methylimidazol-4-yl)amino]-4-pyridyl]-6-[2-(trifluoromethyl)phenyl]-1H-pyridin-2-one], the IC50 at Vps34 enzyme is 12 nM.
For `Cc1nccc(Nc2cc(-c3cc(-c4ccccc4Cl)[nH]c(=O)c3)ccn2)n1` [Example 66, 6-(2-Chlorophenyl)-4-[2-[(2-methylpyrimidin-4-yl)amino]-4-pyridyl]-1H-pyridin-2-one], the IC50 on Vps34 enzyme is under 5 nM.
